Data as given in US10167262B2, “Herbicidal substituted 3-arylpyrazoles” (FMC CORPORATION, priority 2014, dated 2019).
Read-outs that look alike come from different tables or passages of the source.

How the values were obtained:
Experiment in all cases: Test C pre-/postemergence greenhouse test, plant response rating 0-100
Assay type in all cases: in vivo
[1] = tested on: Italian ryegrass (Lolium multiflorum); settings: Lolium multiflorum; for pest or weed control at 62 g/ha: 62 g ai/ha; for pest or weed control at 125 g/ha: 125 g ai/ha; for pest or weed control at 250 g/ha: 250 g ai/ha
In short: (§1)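 Greenhouse test. Preemergence: seed in loam:sand, sprayed with formulated chemical (solvent + surfactant). Postemergence: 1–4 leaf plants, 2–18 cm, peat-based potting medium. Hold 13–15 d; score visually, 0 (none) to 100 (complete control); dash = not tested.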

[2] = tested on: corn (Zea mays); settings: Zea mays; for Corn plant response rating (crop injury, 0 = no effect, 100 = complete kill) at 250 g/ha: 250 g ai/ha
In short: as §1

[3] = tested on: galium (catchweed bedstraw, Galium aparine); settings: Galium; for pest or weed control at 62 g/ha: 62 g ai/ha; for pest or weed control at 125 g/ha: 125 g ai/ha; for pest or weed control at 250 g/ha: 250 g ai/ha
In short: as §1

[4] = tested on: giant foxtail (Setaria faberii); settings: Setaria faberi; for pest or weed control at 62 g/ha: 62 g ai/ha; for pest or weed control at 125 g/ha: 125 g ai/ha; for pest or weed control at 250 g/ha: 250 g ai/ha
In short: as §1

[5] = tested on: johnsongrass (Sorghum halepense); settings: Sorghum halepense; for pest or weed control at 62 g/ha: 62 g ai/ha; for pest or weed control at 125 g/ha: 125 g ai/ha; for pest or weed control at 250 g/ha: 250 g ai/ha
In short: as §1

[6] = tested on: lambsquarters (Chenopodium album); settings: Chenopodium album; for pest or weed control at 62 g/ha: 62 g ai/ha; for pest or weed control at 125 g/ha: 125 g ai/ha; for pest or weed control at 250 g/ha: 250 g ai/ha
In short: as §1

[7] = tested on: large (Lg) crabgrass (Digitaria sanguinalis); settings: Digitaria sanguinalis; for pest or weed control at 62 g/ha: 62 g ai/ha; for pest or weed control at 125 g/ha: 125 g ai/ha; for pest or weed control at 250 g/ha: 250 g ai/ha
In short: as §1

[8] = tested on: morningglory (Ipomoea coccinea); settings: Ipomoea; for pest or weed control at 62 g/ha: 62 g ai/ha; for pest or weed control at 125 g/ha: 125 g ai/ha; for pest or weed control at 250 g/ha: 250 g ai/ha
In short: as §1

[9] = tested on: pigweed (Amaranthus retroflexus); settings: Amaranthus retroflexus; for pest or weed control at 62 g/ha: 62 g ai/ha; for pest or weed control at 125 g/ha: 125 g ai/ha; for pest or weed control at 250 g/ha: 250 g ai/ha
In short: as §1

[10] = tested on: soybean (Glycine max); settings: Glycine max; for plant injury at 62 g/ha: 62 g ai/ha; for plant injury at 125 g/ha: 125 g ai/ha; for plant injury at 250 g/ha: 250 g ai/ha
In short: as §1

[11] = tested on: velvetleaf (Abutilon theophrasti); settings: Abutilon theophrasti; for pest or weed control at 62 g/ha: 62 g ai/ha; for pest or weed control at 125 g/ha: 125 g ai/ha; for pest or weed control at 250 g/ha: 250 g ai/ha
In short: as §1

[12] = tested on: winter wheat (Triticum aestivum); settings: Triticum aestivum; for plant injury at 62 g/ha: 62 g ai/ha; for plant injury at 125 g/ha: 125 g ai/ha; for plant injury at 250 g/ha: 250 g ai/ha
In short: as §1

[13] = tested on: yellow nutsedge (Cyperus esculentus); settings: Cyperus; for pest or weed control at 62 g/ha: 62 g ai/ha; for pest or weed control at 125 g/ha: 125 g ai/ha; for pest or weed control at 250 g/ha: 250 g ai/ha
In short: as §1

[14] = post-emergence, Postemergence, read-out: Plant response rating (0 to 100), Ryegrass, Italian
[15] = post-emergence, Postemergence, scale 0 to 100
[16] = post-emergence, Postemergence, 500 g ai/ha, scale 0 to 100
[17] = pre-emergence, Preemergence, read-out: Plant response rating, Ryegrass, Italian
[18] = pre-emergence, Preemergence, 31 g ai/ha
[19] = post-emergence, Postemergence, read-out: Plant response rating (0 to 100), Galium
[20] = pre-emergence, Preemergence, read-out: Plant response rating, Galium
[21] = post-emergence, Postemergence, read-out: Plant response rating (0 to 100), Foxtail, Giant
[22] = pre-emergence, Preemergence, read-out: Plant response rating, Foxtail, Giant
[23] = post-emergence, Postemergence, read-out: Plant response rating (0 to 100), Johnsongrass
[24] = pre-emergence, Preemergence, read-out: Plant response rating, Johnsongrass
[25] = post-emergence, Postemergence, read-out: Plant response rating (0 to 100), Lambsquarters
[26] = pre-emergence, Preemergence, read-out: Plant response rating, Lambsquarters
[27] = post-emergence, Postemergence, read-out: Plant response rating (0 to 100), Crabgrass, Large
[28] = pre-emergence, Preemergence, read-out: Plant response rating, Crabgrass, Large
[29] = post-emergence, Postemergence, read-out: Plant response rating (0 to 100), Morningglory
[30] = pre-emergence, Preemergence, read-out: Plant response rating, Morningglory
[31] = post-emergence, Postemergence, read-out: Plant response rating (0 to 100), Pigweed
[32] = pre-emergence, Preemergence, read-out: Plant response rating, Pigweed
[33] = post-emergence, Postemergence, read-out: Plant response rating (0 to 100), Soybean
[34] = pre-emergence, Preemergence, read-out: Plant response rating, Soybean
[35] = post-emergence, Postemergence, read-out: Plant response rating (0 to 100), Velvetleaf
[36] = pre-emergence, Preemergence, read-out: Plant response rating, Velvetleaf
[37] = post-emergence, Postemergence, read-out: Plant response rating (0 to 100), Wheat
[38] = pre-emergence, Preemergence, read-out: Plant response rating, Wheat
[39] = post-emergence, Postemergence, read-out: Plant response rating (0 to 100), Nutsedge, Yellow
[40] = pre-emergence, Preemergence, read-out: Plant response rating, Nutsedge, Yellow

O=C(c1ccccc1)c1cn(CO)nc1-c1cc(Cl)cc(Cl)c1 [Compound 15, [3-(3,5-dichlorophenyl)-1-(hydroxymethyl)-1H-pyrazol-4-yl]phenylmethanone]
5%: plant injury at 500 g/ha [10, 16]
100%: pest or weed control at 31 g/ha [6, 18] | pest or weed control at 62 g/ha [6, 26] | pest or weed control at 125 g/ha [6, 26] | pest or weed control at 250 g/ha ([6]; pre-emergence, Preemergence) | pest or weed control at 125 g/ha [9, 31] | pest or weed control at 250 g/ha [9, 15] | pest or weed control at 500 g/ha [9, 16] | pest or weed control at 31 g/ha [9, 18] | pest or weed control at 62 g/ha [9, 32] | pest or weed control at 125 g/ha [9, 32] | pest or weed control at 250 g/ha ([9]; pre-emergence, Preemergence) | pest or weed control at 125 g/ha [11, 36] | pest or weed control at 250 g/ha ([11]; pre-emergence, Preemergence)
10%: pest or weed control at 250 g/ha [3, 15] | pest or weed control at 500 g/ha [4, 16] | pest or weed control at 250 g/ha [8, 15]
45%: pest or weed control at 500 g/ha [3, 16]
20%: pest or weed control at 500 g/ha [8, 16]
80%: pest or weed control at 125 g/ha [6, 25] | pest or weed control at 250 g/ha [6, 15] | pest or weed control at 62 g/ha [11, 35] | pest or weed control at 125 g/ha [11, 35]
75%: pest or weed control at 62 g/ha [6, 25]
0%: pest or weed control at 62 g/ha [1, 14] | pest or weed control at 125 g/ha [1, 14] | pest or weed control at 250 g/ha [1, 15] | pest or weed control at 500 g/ha [1, 16] | pest or weed control at 62 g/ha [1, 17] | pest or weed control at 125 g/ha [1, 17] | pest or weed control at 250 g/ha ([1]; pre-emergence, Preemergence) | plant injury at 62 g/ha ([2]; post-emergence, Postemergence, 62 g ai/ha) | plant injury at 125 g/ha ([2]; post-emergence, Postemergence, 125 g ai/ha) | Corn plant response rating (crop injury, 0 = no effect, 100 = complete kill) at 250 g/ha [2, 15] | Corn plant response rating (crop injury, 0 = no effect, 100 = complete kill) at 500 g/ha [2, 16] | Corn plant response rating (crop injury, 0 = no effect, 100 = complete kill) at 31 g/ha [2, 18] | Corn plant response rating (crop injury, 0 = no effect, 100 = complete kill) at 62 g/ha ([2]; pre-emergence, Preemergence, 62 g ai/ha) | Corn plant response rating (crop injury, 0 = no effect, 100 = complete kill) at 125 g/ha ([2]; pre-emergence, Preemergence, 125 g ai/ha) | Corn plant response rating (crop injury, 0 = no effect, 100 = complete kill) at 250 g/ha ([2]; pre-emergence, Preemergence) | pest or weed control at 62 g/ha [3, 19] | pest or weed control at 125 g/ha [3, 19] | pest or weed control at 31 g/ha ([3]; pre-emergence, Preemergence, 31 g ai/ha, read-out: Plant response rating, Galium) | pest or weed control at 62 g/ha [3, 20] | pest or weed control at 125 g/ha [3, 20] | pest or weed control at 250 g/ha ([3]; pre-emergence, Preemergence) | pest or weed control at 62 g/ha [4, 21] | pest or weed control at 125 g/ha [4, 21] | pest or weed control at 250 g/ha [4, 15] | pest or weed control at 31 g/ha ([4]; pre-emergence, Preemergence, 31 g ai/ha, read-out: Plant response rating, Foxtail, Giant) | pest or weed control at 62 g/ha [4, 22] | pest or weed control at 125 g/ha [4, 22] | pest or weed control at 250 g/ha ([4]; pre-emergence, Preemergence) | pest or weed control at 62 g/ha [5, 23] | pest or weed control at 125 g/ha [5, 23] | pest or weed control at 250 g/ha [5, 15] | pest or weed control at 500 g/ha [5, 16] | pest or weed control at 31 g/ha [5, 18] | pest or weed control at 62 g/ha [5, 24] | pest or weed control at 125 g/ha [5, 24] | pest or weed control at 250 g/ha ([5]; pre-emergence, Preemergence) | pest or weed control at 62 g/ha [7, 27] | pest or weed control at 125 g/ha [7, 27] | pest or weed control at 250 g/ha [7, 15] | pest or weed control at 500 g/ha [7, 16] | pest or weed control at 31 g/ha ([7]; pre-emergence, Preemergence, 31 g ai/ha, read-out: Plant response rating, Crabgrass, Large) | pest or weed control at 62 g/ha [7, 28] | pest or weed control at 125 g/ha [7, 28] | pest or weed control at 250 g/ha ([7]; pre-emergence, Preemergence) | pest or weed control at 62 g/ha [8, 29] | pest or weed control at 125 g/ha [8, 29] | pest or weed control at 31 g/ha [8, 18] | pest or weed control at 62 g/ha [8, 30] | pest or weed control at 125 g/ha [8, 30] | pest or weed control at 250 g/ha ([8]; pre-emergence, Preemergence) | plant injury at 62 g/ha [10, 33] | plant injury at 125 g/ha [10, 33] | plant injury at 250 g/ha [10, 15] | plant injury at 62 g/ha [10, 34] | plant injury at 125 g/ha [10, 34] | plant injury at 250 g/ha ([10]; pre-emergence, Preemergence) | plant injury at 62 g/ha [12, 37] | plant injury at 125 g/ha [12, 37] | plant injury at 250 g/ha [12, 15] | plant injury at 500 g/ha [12, 16] | plant injury at 62 g/ha [12, 38] | plant injury at 125 g/ha [12, 38] | plant injury at 250 g/ha ([12]; pre-emergence, Preemergence) | pest or weed control at 62 g/ha [13, 39] | pest or weed control at 125 g/ha [13, 39] | pest or weed control at 250 g/ha [13, 15] | pest or weed control at 500 g/ha [13, 16] | pest or weed control at 31 g/ha [13, 18] | pest or weed control at 62 g/ha [13, 40] | pest or weed control at 125 g/ha [13, 40] | pest or weed control at 250 g/ha ([13]; pre-emergence, Preemergence)
90%: pest or weed control at 500 g/ha [6, 16] | pest or weed control at 62 g/ha [9, 31] | pest or weed control at 250 g/ha [11, 15] | pest or weed control at 500 g/ha [11, 16]
60%: pest or weed control at 62 g/ha [11, 36]
